Assay results as given in US7355069B2, “Ortho-substituted benzoic acid derivatives for the treatment of insulin resistance” (AstraZeneca AB, priority 2002, dated 2008).

Each compound was assayed against T1, human PPAR alpha (Homo sapiens, UniProt Q07869) (assay: GAL4-PPAR ligand binding domain luciferase reporter transactivation assay in transiently transfected U2-OS cells). Details: about 24 hours exposure, concentration giving 50% of maximal activation by reference compound (ETYA).
T1 construct: expressed in transfected cells; host or cells: U2-OS (human osteogenic sarcoma), transient electroporation with pSG5-based expression vector
T1 sequence (Q07869 239-466 limits assumed): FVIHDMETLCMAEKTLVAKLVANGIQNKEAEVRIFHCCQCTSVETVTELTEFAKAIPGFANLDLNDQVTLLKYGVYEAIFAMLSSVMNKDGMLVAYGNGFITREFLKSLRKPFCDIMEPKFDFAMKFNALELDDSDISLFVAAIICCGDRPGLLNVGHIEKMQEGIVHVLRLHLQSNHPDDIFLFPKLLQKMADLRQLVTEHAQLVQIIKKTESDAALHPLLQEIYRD
Type: cell-based
Protocol: Compounds were dissolved in DMSO to obtain 16 mM stock solutions. Before assays, stock solutions were further diluted in DMSO and culture media.
U2-OS, (Osteogenic sarcoma, Human) was purchased from ATCC, USA. Cells were expanded and refrozen in batches from passage number six. Cells were cultured in Dulbecco's modified Eagle medium (DMEM) with 25 mM glucose, 2 mM glutamine or 4 mM L-alanyl-L-glutamine, 10% fetal calf serum, at 5% CO2. Phosphate buffered saline (PBS) without addition of calcium or magnesium was used. All cell culture reagents were from Gibco (USA) and 96-well cell culture plates were purchased from Wallach.
Standard recombinant DNA techniques were carried out as described by Ausubel (7). The Luciferase reporter vector, pGL5UAS (clone consists of five copies of the GAL4 DNA binding sequence, 5′-[…]-3′, cloned into the SacI/XhoI sites of pGL3-Promoter (Promega). The SacI/XhoI fragment carrying the UAS sites was constructed using annealed overlapping oligonucleotides.
Expression vectors used are based upon pSG5 (Stratagene). All vectors contain an EcoRI/NheI fragment encoding the DNA binding domain of GAL4 (encoding amino acid positions 1-145 of database accession number P04386) followed by an in-frame fusion to a fragment encoding the nuclear localisation sequence from T antigen of Polyoma Virus. The nuclear localisation sequence was constructed using annealed overlapping oligonucleotides creating NheI/KpnI sticky ends (5′-[…]-3′). The ligand binding domains from human and mouse PPARα and human and mouse PPARγ were PCR amplified as KpnI/BamHI fragments and cloned in frame to the GAL4 DNA binding domain and the nuclear localisation sequence. The sequence of all plasmid constructs used were confirmed by sequencing.
Frozen stocks of cells from passage number six were thawed and expanded to passage number eight before transfections. Confluent cells were trypsinised, washed and pelleted by centrifugation at 270×g for 2 minutes. The cell pellet was resuspended in cold PBS to a cell concentration of about 18×10^6 cells/ml. After addition of DNA, the cell suspension was incubated on ice for approximately 5 minutes before electroporation at 230 V, 960 μF in Biorad's Gene Pulser™ in 0.5 ml batches. A total of 50 μg DNA was added to each batch of 0.5 ml cells, including 2.5 μg expression vector, 25 μg reporter vector and 22.5 μg unspecific DNA (pBluescript, Stratagene).
After electroporation, cells were diluted to a concentration of 320'000 cells/ml in DMEM without phenol red, and approximately 25'000 cells/well were seeded in 96-well plates. In order to allow cells to recover, seeded plates were incubated at 37° C. for 3-4 hours before addition of test compounds. […]
In the case of `CCCCCCCN(Cc1ccc(F)cc1F)C(=O)CCc1ccc(OCc2ccccc2C(=O)O)cc1` [Example 5, 2-[(4-{3-[(2,4-Difluorobenzyl)(heptyl)amino]-3-oxopropyl}phenoxy)methyl]benzoic acid], the EC50 is reported as 0.163 µM. `CCCN(Cc1ccc(F)cc1F)C(=O)CCc1ccc(OCc2ccccc2C(=O)O)cc1` [Example 10, 2-[(4-{3-[(2,4-difluorobenzyl)(propyl)amino]-3-oxopropyl}phenoxy)methyl]benzoic acid] gave an EC50 of 0.168 µM. `CCN(Cc1ccc(C(F)(F)F)cc1)C(=O)Cc1ccc(SCc2ccccc2C(=O)O)cc1` [Example 11, 2-({[4-(2-{Ethyl[4-(trifluoromethyl)benzyl]amino}-2-oxoethyl)phenyl]thio}methyl)benzoic acid] showed an EC50 of 0.026 µM. `CCN(Cc1ccc(Cl)cc1)C(=O)Cc1ccc(SCc2ccccc2C(=O)O)cc1` [Example 15, 2-{[(4-{2-[(4-Chlorobenzyl)(ethyl)amino]-2-oxoethyl}phenyl)thio]methyl}benzoic acid] showed an EC50 of 0.027 µM.
